# Where two headings read alike, the source gives them in different places. Where a SMILES comes first, the peptide text is derived from it. Where no end group is shown, it is not given here.
# T1: angiotensin-I-converting enzyme (UniProt P12822 34-1260)
# T1 sequence (looked up): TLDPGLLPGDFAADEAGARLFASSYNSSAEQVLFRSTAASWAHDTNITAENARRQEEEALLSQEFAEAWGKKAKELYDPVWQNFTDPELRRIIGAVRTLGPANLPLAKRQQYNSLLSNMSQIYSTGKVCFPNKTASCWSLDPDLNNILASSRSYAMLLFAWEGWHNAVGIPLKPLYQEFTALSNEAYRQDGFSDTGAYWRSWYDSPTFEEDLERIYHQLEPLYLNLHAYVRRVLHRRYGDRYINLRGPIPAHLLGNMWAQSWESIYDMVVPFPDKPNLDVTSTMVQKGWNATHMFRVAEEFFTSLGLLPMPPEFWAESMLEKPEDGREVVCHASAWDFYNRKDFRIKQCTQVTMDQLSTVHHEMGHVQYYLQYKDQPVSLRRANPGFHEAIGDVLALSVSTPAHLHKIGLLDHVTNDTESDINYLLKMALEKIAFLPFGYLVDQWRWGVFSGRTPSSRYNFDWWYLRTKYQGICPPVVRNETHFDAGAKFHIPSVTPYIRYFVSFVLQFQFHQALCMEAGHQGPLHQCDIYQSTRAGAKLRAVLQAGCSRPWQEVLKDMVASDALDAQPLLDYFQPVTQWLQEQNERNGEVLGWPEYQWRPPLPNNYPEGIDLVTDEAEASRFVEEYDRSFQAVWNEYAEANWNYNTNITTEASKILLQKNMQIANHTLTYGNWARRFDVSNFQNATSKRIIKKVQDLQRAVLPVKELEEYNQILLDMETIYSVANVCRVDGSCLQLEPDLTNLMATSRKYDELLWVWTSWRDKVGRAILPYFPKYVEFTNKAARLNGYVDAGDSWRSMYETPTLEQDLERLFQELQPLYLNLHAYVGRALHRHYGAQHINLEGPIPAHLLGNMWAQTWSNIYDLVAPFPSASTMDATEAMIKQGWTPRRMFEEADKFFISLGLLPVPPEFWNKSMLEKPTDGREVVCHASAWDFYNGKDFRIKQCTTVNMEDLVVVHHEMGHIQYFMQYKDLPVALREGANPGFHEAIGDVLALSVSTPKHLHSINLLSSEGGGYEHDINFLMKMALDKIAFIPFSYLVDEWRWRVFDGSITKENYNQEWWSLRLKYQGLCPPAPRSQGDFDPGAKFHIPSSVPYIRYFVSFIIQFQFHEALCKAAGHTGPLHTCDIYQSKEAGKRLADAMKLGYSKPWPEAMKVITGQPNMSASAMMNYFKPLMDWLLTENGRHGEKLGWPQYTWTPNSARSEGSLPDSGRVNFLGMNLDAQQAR
# Experiments:
# ACE [1] = biological target: T2, ACE (Homo sapiens, UniProt P12821); experiment: ACE-inhibitory activity assay of synthetic peptides (HHL substrate, hippuric acid by RP-HPLC); type: biochemical; conditions: for inhibition at 1000 µg/mL: 0.75 h, peptide 1 mg/mL; for IC50: Table 2, top 8 peptides
# T2 sequence (P12821 30-1306, species assumed): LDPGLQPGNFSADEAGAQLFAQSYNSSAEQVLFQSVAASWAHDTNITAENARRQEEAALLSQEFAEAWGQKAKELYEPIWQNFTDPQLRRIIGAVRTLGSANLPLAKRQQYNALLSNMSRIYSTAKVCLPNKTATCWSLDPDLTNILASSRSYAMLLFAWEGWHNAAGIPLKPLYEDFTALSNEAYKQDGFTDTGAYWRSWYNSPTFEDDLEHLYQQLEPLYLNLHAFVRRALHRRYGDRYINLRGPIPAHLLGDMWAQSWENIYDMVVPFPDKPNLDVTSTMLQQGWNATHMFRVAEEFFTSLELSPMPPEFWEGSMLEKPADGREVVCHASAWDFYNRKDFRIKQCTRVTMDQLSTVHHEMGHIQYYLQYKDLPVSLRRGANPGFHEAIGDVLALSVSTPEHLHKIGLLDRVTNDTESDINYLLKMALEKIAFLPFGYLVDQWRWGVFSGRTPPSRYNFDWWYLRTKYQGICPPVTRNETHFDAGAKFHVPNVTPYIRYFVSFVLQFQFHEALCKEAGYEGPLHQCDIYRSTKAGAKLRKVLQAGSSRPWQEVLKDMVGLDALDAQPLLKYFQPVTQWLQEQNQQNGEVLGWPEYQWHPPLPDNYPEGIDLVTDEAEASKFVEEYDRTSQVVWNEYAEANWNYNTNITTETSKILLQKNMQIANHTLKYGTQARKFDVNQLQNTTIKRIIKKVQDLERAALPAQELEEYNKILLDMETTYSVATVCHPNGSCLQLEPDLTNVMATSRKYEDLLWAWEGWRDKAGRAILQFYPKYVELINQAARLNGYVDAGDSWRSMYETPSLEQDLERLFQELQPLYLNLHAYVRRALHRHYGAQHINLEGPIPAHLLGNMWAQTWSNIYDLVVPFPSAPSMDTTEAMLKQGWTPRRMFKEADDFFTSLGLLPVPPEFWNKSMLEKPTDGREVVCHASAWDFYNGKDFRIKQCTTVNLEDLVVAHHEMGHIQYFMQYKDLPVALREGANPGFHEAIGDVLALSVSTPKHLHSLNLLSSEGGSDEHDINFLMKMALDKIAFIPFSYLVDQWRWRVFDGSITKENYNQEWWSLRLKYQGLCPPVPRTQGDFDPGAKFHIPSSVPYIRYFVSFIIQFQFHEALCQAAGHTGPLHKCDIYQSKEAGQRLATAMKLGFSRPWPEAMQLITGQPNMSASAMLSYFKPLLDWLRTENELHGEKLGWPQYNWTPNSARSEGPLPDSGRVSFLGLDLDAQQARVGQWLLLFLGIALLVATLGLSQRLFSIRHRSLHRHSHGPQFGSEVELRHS
# Description: The peptides were prepared by the fmoc solid-phase method (purity ≥ 98% by HPLC) at Genscript Biotech Corporation (Nanjing, China). ACE-inhibitory activity of the synthesized peptides was evaluated according to the method of Ma. et al., with some modifications. In brief, 50 µL of sample was added into 150 µL of 5 mmol·L^−1 hippuryl-l-histidyl-l-leucine (HHL) and incubated for 10 min at 37 °C. Then, the enzymatic reaction was initiated by addition of 50 µL of 50 mU/mL ACE solution and kept at a constant temperature of 37 °C for 45 min. The reaction was then terminated by adding 250 µL of 1 mol·L^−1 HCl. RP-HPLC (Waters, Milford, MA, USA) was used to measure hippuric acid (HA) formation at 220 nm. […] The IC50 value represents the concentration of the peptide that inhibits 50% of ACE activity under the assay conditions.
# ACE [2] = biological target: T2, ACE; conditions: read-out: IC50, ACE inhibition, cited from earlier work
# [3] = attributed to multiple hydrophobic amino acids
# ACE [4] = biological target: T2, ACE; experiment: Surface plasmon resonance (SPR) assay; type: binding
# Description: The affinity interaction between TLRFALHGME and ACE was verified by SPR experiments. In brief, 5 ug ACE was fixed on a COOH sensor chip by capture-coupling. Afterwards, 50–800 μmol·L^−1 of TLRFALHGME were injected sequentially into the chamber in PBS running buffer. The SPR assay was performed at 25 °C on an OpenSPRTM (Nicoya Lifesciences, Waterloo, QC, Canada). The conditions for the analysis were set at a flow rate of 20 μL·min^−1, the binding time was 240 s, and the disassociation time was 480 s. Chips were regenerated using a regeneration buffer (0.25% SDS). A one-to-one diffusion-corrected model was fitted to the wavelength shifts corresponding to the series of TLRFALHGME concentrations. The kinetic constant analysis was performed using TraceDrawer 1.9.1 software (Ridgeview Instruments AB, Uppsala, Sweden) to determine the association constant (Ka) and dissociation constant (Kd). The affinity constant (KD) was calculated as the ratio kd/ka.
# hypertensive rats = test system: hypertensive rats; design: method as in PMID 34783331; conditions: cited from earlier work
# [5] = biological target: T1, angiotensin-I-converting enzyme; experiment: cell-based or functional assay
# [6] = biological target: T1, angiotensin-I-converting enzyme
# [7] = from Volutharpa ampullacea perryi hydrolysate, Zn-SBA-15-immobilized ACE and HPLC
molecule,measurement,setting,value
CC(C)C[C@H](NC(=O)[C@H](C)NC(=O)[C@H](C)NC(=O)[C@@H](N)CO)C(=O)O [SAAL] (H-SAAL-OH; N-terminus and C-terminus assumed),inhibition at 1000 µg/mL,ACE [1],> 50%
same,IC50,ACE [1],883 µM
CC(C)C[C@H](NC(=O)[C@H](CC(C)C)NC(=O)[C@@H](NC(=O)[C@@H](N)[C@@H](C)O)C(C)C)C(=O)O [TVLL] (H-TVLL-OH; N-terminus and C-terminus assumed),inhibition at 1000 µg/mL,ACE [1],> 50%
same,IC50,ACE [1],582 µM
CC(C)C[C@H](NC(=O)[C@@H](N)C(C)C)C(=O)NCC(=O)N[C@@H](C)C(=O)O [VLGA] (H-VLGA-OH; N-terminus and C-terminus assumed),inhibition at 1000 µg/mL,ACE [1],> 50%
same,IC50,ACE [1],1370 µM
CC(C)C[C@H](NC(=O)[C@H](CC(C)C)NC(=O)[C@@H](NC(=O)[C@@H](N)Cc1ccc(O)cc1)C(C)C)C(=O)O [YVLL] (H-YVLL-OH; N-terminus and C-terminus assumed),inhibition at 1000 µg/mL,ACE [1],> 50%
same,IC50,ACE [1],154 µM
IVTNWDDMEL,IC50,ACE [2]; [7],2.08 mM
RSTGALAL [RSTGALAL],inhibition at 1000 µg/mL,ACE [1],> 50%
same,IC50,ACE [1],5840 µM
TFTGA [TFTGA],inhibition at 1000 µg/mL,ACE [1],> 50%
same,IC50,ACE [1],694 µM
TLFGL [TLFGL],Solubility,[3],low solubility
same,inhibition at 1000 µg/mL,ACE [1],> 50%
same,IC50,ACE [1],57.5 µM
TLRFALHGME [TLRFALHGME],koff,"ACE [4]; 25 °C, 50–800 µmol·L^−1 peptide, read-out: Kd (dissociation rate constant)",0.002 s⁻¹
same,Kd,"ACE [4]; KD, printed in Figure 7",80.8 µM
same,Kd,"ACE [4]; abstract, read-out: Kd (binding affinity to ACE)",80.9 µM
same,inhibition at 1000 µg/mL,ACE [1],> 50%
same,IC50,ACE [1],93.5 µM
VGPAGRPG,IC50,ACE [2]; [7],4.66 mM
VYP,IC50,"ACE [2]; from lizard fish protein hydrolysates, MA-IML",0.108 mM
WGAP,Reduction of diastolic blood pressure,hypertensive rats,≤ 28.56 ± 2.71 mmHg
same,Reduction of systolic blood pressure,hypertensive rats,up to 42.66 ± 2.87 mmHg
RSTGALAL,"ACE-inhibitory activity (hippuric acid formed from HHL, RP-HPLC), IC50",[5],5840 µmol/L
YVLL,"ACE-inhibitory activity (hippuric acid formed from HHL, RP-HPLC), IC50",[6],154 µmol/L
TFTGA,"ACE-inhibitory activity (hippuric acid formed from HHL, RP-HPLC), IC50",[5],694 µmol/L
TVLL,"ACE-inhibitory activity (hippuric acid formed from HHL, RP-HPLC), IC50",[6],582 µmol/L
VLGA,"ACE-inhibitory activity (hippuric acid formed from HHL, RP-HPLC), IC50",[6],1370 µmol/L
TLFGL,"ACE-inhibitory activity (hippuric acid formed from HHL, RP-HPLC), IC50",[5],57.5 µmol/L
SAAL,"ACE-inhibitory activity (hippuric acid formed from HHL, RP-HPLC), IC50",[6],883 µmol/L
"TLRFALHGME (source: Takifugu flavidus skin hydrolysate (alcalase, <1 kDa fraction); also synthetic peptide (Fmoc solid phase, Genscript))","ACE-inhibitory activity (hippuric acid formed from HHL, RP-HPLC), IC50",[5],93.5 µmol/L

# Source: paper PMC10608451, “Affinity Purification and Molecular Characterization of Angiotensin-Converting Enzyme (ACE)-Inhibitory Peptides from Takifugu flavidus” (Marine Drugs, 2023)
